Reference: ChEMBL document CHEMBL2177023, “Effects of antimalarial molecules on the gametocyte stage of Plasmodium falciparum: the debate” (J Med Chem, 2012)

Key:
[1] = tested on: Plasmodium falciparum; assay: Antimalarial activity against Plasmodium falciparum gametocytes; type: functional, organism-based
[2] = tested on: Plasmodium falciparum; assay: Antimalarial activity against Plasmodium falciparum KT1 gametocytes; type: functional, organism-based
[3] = tested on: Plasmodium falciparum; assay: Antimalarial activity against Plasmodium falciparum KT3 gametocytes; type: functional, organism-based
[4] = tested on: Plasmodium berghei; assay: Antimalarial activity against Plasmodium berghei infected in mosquitoes assessed as reduction in number of sporozoites; type: functional; set-up: scale not given: the % may be the effect or the level left
[5] = tested on: Plasmodium chabaudi; assay: Antimalarial activity against Plasmodium chabaudi infected rat malaria model; type: functional
[6] = tested on: Plasmodium berghei; assay: Antimalarial activity against Plasmodium berghei infected in mosquitoes assessed as reduction in number of oocysts; type: functional; set-up: scale not given: the % may be the effect or the level left
[7] = tested on: Plasmodium falciparum; assay: Antimalarial activity against Plasmodium falciparum stage 3 to 5 gametocytes; type: functional, organism-based
[8] = tested on: Plasmodium falciparum; assay: Antimalarial activity against Plasmodium falciparum gametocytes by GFP-luciferase reporter gene assay; type: functional, organism-based
[9] = tested on: Plasma; assay: (§1) Half life in human plasma; type: ADME, cell-free
[10] = tested on: Plasmodium falciparum; assay: Antimalarial activity against transgenic Plasmodium falciparum 3D7 GFP16B gametocytes; type: functional, organism-based
[11] = as §1; type: ADME, cell-free

COc1cc(N[C@H](C)CCCN)c2nccc(C)c2c1Oc1ccc(Cl)c(Cl)c1
IC50 [1]: 3800 nM

CN(C)Cc1ccc(Nc2c3ccccc3nc3ccccc23)cc1
IC50 [2]: 600 nM | IC50 [3]: 600 nM

COc1cc2cc(C(=O)Nc3cc(N)c4ccccc4c3CCCl)[nH]c2c(OC)c1OC [CENTANAMYCIN]
Activity [4]: 99% | ED50 [5]: 1.5 mg/kg | Activity [6]: 83%

CC[C@H](C)[C@H](NC(=O)[C@H]([C@@H](C)CC)N(C)C(C)=O)C(=O)N[C@H](C(=O)N[C@@H](CC(C)C)C(=O)[C@@]1(C)CO1)[C@@H](C)O [EPOXOMYCIN]
IC50 [7]: 2 nM

CN(C)c1ccc2nc3ccc(=[N+](C)C)cc-3sc2c1 [METHYLENE BLUE CATION]
IC50 [8]: 12 nM

COc1cc(NC(C)CCCN)c2ncccc2c1 (stereo unspecified) [PRIMAQUINE]
t1/2 [9]: 0.03 weeks | IC50 [2]: 800 nM | IC50 [3]: 2100 nM

COc1ccc2nc3cc(Cl)ccc3c(Nc3cc(CN4CCCC4)c(O)c(CN4CCCC4)c3)c2n1 [PYRONARIDINE]
IC50 [10]: 23 nM | IC50 [2]: 6 nM | IC50 [3]: 20 nM

COc1cc(C)c2c(Oc3cccc(C(F)(F)F)c3)c(OC)cc(NC(C)CCCN)c2n1 (stereo unspecified) [TAFENOQUINE]
half-life [11]: 14 days

C=C(NC(=O)C(=C)NC(=O)c1csc(C2=N[C@@H]3c4csc(n4)[C@H]4NC(=O)c5csc(n5)[C@H]([C@](C)(O)[C@@H](C)O)NC(=O)[C@H]5CSC(=N5)/C(=C/C)NC(=O)[C@H]([C@@H](C)O)NC(=O)c5csc(n5)[C@]3(CC2)NC(=O)[C@H](C)NC(=O)C(=C)NC(=O)[C@H](C)NC(=O)[C@H]([C@@H](C)CC)N[C@@H]2C=Cc3c([C@H](C)O)cc(nc3[C@H]2O)C(=O)O[C@@H]4C)n1)C(N)=O [THIOSTREPTON]
IC50 [1]: < 10000 nM
